Measurements published in US11274083B2, “Substituted thiophenyl uracils, salts thereof and the use thereof as herbicidal agents” (Syngenta Crop Protection AG, priority 2017, dated 2022).

Tests used:
Format in all cases: in vivo
Digitaria sanguinalis = experiment: Herbicidal action post-emergence, greenhouse pot test; settings: application rate 20 g/ha
Glycine max = experiment: Crop compatibility post-emergence, greenhouse pot test; settings: application rate 5 g/ha
Outline: (§1)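 Pot-grown plants in sandy loam, greenhouse, sprayed post-emergence at the one-leaf stage (2–3 weeks after sowing) with WP or EC formulations as aqueous spray plus 0.5% additive at 600 L/ha. Damage scored visually after about 3 weeks versus untreated controls, in % (0% = like control, 100% = dead).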

Oryza sativa = experiment: as above
Outline: as §1

Triticum aestivum = experiment: as above
Outline: as §1

Zea mays = experiment: as above
Outline: as §1

Stellaria media [1] = experiment: Herbicidal action post-emergence, greenhouse pot test
Outline: (§2)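 Efficacy is a visual percentage, 0% like untreated and 100% dead, read about 3 weeks after treatment under optimal greenhouse growth. Treatment was a post-emergence spray of aqueous WP or EC preparations at 80 g/ha or lower with 0.5% additive.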

Matricaria inodora [2] = experiment: as above; settings: application rate 20 g/ha
Outline: as §2

Abutilon theophrasti [3] = experiment: as above
Outline: as §2

Setaria viridis [4] = experiment: as above
Outline: as §2

Veronica persica [5] = experiment: as above
Outline: as §2

Echinochloa crus-galli [6] = experiment: as above
Outline: as §2

Viola tricolor = experiment: as above
Outline: as §2

Polygonum convolvulus [7] = experiment: as above; settings: application rate 20 g/ha
Outline: as §2

Pharbitis purpurea [8] = experiment: as above
Outline: as §2

Amaranthus retroflexus [9] = experiment: as above
Outline: as §2

Alopecurus myosuroides [10] = experiment: as above; settings: application rate 20 g/ha, scored visually after about 3 weeks vs untreated controls
Outline: as §2

Matricaria inodora [11] = experiment: Herbicidal action pre-emergence, greenhouse pot test; settings: application rate 320 g/ha
Stellaria media [12] = experiment: as above; settings: application rate 320 g/ha
Outline: (§3)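 Soil-applied pre-emergence treatment: aqueous suspension or emulsion of WP or EC formulation, 0.5% additive, water equivalent to 600 L/ha, dose of 320 g/ha or lower. Readout is visual percent efficacy after ~3 weeks, where 0% equals control plants.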

Abutilon theophrasti [13] = experiment: as above; settings: application rate 320 g/ha
Outline: as §3

Setaria viridis [14] = experiment: as above; settings: application rate 320 g/ha
Outline: as §3

Veronica persica [15] = experiment: as above; settings: application rate 320 g/ha
Outline: as §3

Echinochloa crus-galli [16] = experiment: as above; settings: application rate 320 g/ha
Outline: as §3

Lolium rigidum = experiment: as above; settings: application rate 320 g/ha
Outline: as §3

Polygonum convolvulus [17] = experiment: as above; settings: application rate 320 g/ha
Outline: as §3

Pharbitis purpurea [18] = experiment: as above; settings: application rate 320 g/ha
Outline: as §3

Amaranthus retroflexus [19] = experiment: as above; settings: application rate 80 g/ha
Outline: as §3

Alopecurus myosuroides [20] = experiment: as above; settings: application rate 320 g/ha
Outline: as §3

Glycine max (Efficacy in %) (Glycine max) [%]	Oryza sativa (Efficacy in %) (Oryza sativa; application rate 20 g/ha) [%]	Triticum aestivum (Efficacy in %) (Triticum aestivum; application rate 20 g/ha) [%]	Zea mays (Efficacy in %) (Zea mays; application rate 20 g/ha) [%]	SMILES	Digitaria sanguinalis (Efficacy in %) (Digitaria sanguinalis) [%]	Stellaria media (Efficacy in %) (Stellaria media [1]; application rate 20 g/ha) [%]	Matricaria inodora (Efficacy in %) (Matricaria inodora [2]) [%]	Abutilon theophrasti (Efficacy in %) (Abutilon theophrasti [3]; application rate 70 g/ha) [%]	Setaria viridis (Efficacy in %) (Setaria viridis [4]; application rate 20 g/ha) [%]	Veronica persica (Efficacy in %) (Veronica persica [5]; application rate 20 g/ha) [%]	Echinochloa crus-galli (Efficacy in %) (Echinochloa crus-galli [6]; application rate 20 g/ha) [%]	Viola tricolor (Efficacy in %) (Viola tricolor; application rate 20 g/ha) [%]	Polygonum convolvulus (Efficacy in %) (Polygonum convolvulus [7]) [%]	Pharbitis purpurea (Efficacy in %) (Pharbitis purpurea [8]; application rate 20 g/ha) [%]	Amaranthus retroflexus (Efficacy in %) (Amaranthus retroflexus [9]; application rate 20 g/ha) [%]	further results
20	10	20		CCC(Sc1cc(-n2c(=O)cc(C(F)(F)F)n(C)c2=O)c(F)cc1Cl)C(=O)OCCC(=O)OCc1ccccc1 (centres unmarked) [I.2-6]	80	100	100	100	100	100	100	100	100	100	100	Zea mays (Efficacy in %) (Zea mays; application rate 5 g/ha): 0%; Alopecurus myosuroides (Efficacy in %) (Alopecurus myosuroides [10]): 80%
20	20	10	20	CCOC(=O)COC(=O)C(CC)Sc1cc(-n2c(=O)cc(C(F)(F)F)n(C)c2=O)c(F)cc1Cl (centres unmarked) [I.2-43, 2-Ethoxy-2-oxoethyl 2-({2-chloro-4-fluoro-5-[3-methyl-2,6-dioxo-4-(trifluoromethyl)-3,6-dihydropyrimidin-1(2H)-yl]phenyl}sulfanyl)butanoate]		100	100		100	100	100	100	100	100	100	Abutilon theophrasti (Efficacy in %) (Abutilon theophrasti [3]; application rate 20 g/ha): 100%
20		20	20	COC(=O)CCOC(=O)C(C)(C)Sc1cc(-n2c(=O)cc(C(F)(F)F)n(C)c2=O)c(F)cc1Cl [I.46-2]			100						100			Oryza sativa (Efficacy in %) (Oryza sativa; application rate 80 g/ha): 20%; Matricaria inodora (Efficacy in %) (Matricaria inodora [11]): 100%; Stellaria media (Efficacy in %) (Stellaria media [1]; application rate 80 g/ha): 80%; Abutilon theophrasti (Efficacy in %) (Abutilon theophrasti [3]; application rate 80 g/ha): 100%; Setaria viridis (Efficacy in %) (Setaria viridis [4]; application rate 80 g/ha): 100%; Veronica persica (Efficacy in %) (Veronica persica [5]; application rate 80 g/ha): 80%; Echinochloa crus-galli (Efficacy in %) (Echinochloa crus-galli [6]; application rate 80 g/ha): 100%; Viola tricolor (Efficacy in %) (Viola tricolor; application rate 80 g/ha): 80%; Pharbitis purpurea (Efficacy in %) (Pharbitis purpurea [8]; application rate 80 g/ha): 100%; Amaranthus retroflexus (Efficacy in %) (Amaranthus retroflexus [9]; application rate 80 g/ha): 100%; Stellaria media (Efficacy in %) (Stellaria media [12]): 100%; Abutilon theophrasti (Efficacy in %) (Abutilon theophrasti [13]): 100%; Setaria viridis (Efficacy in %) (Setaria viridis [14]): 100%; Veronica persica (Efficacy in %) (Veronica persica [15]): 100%; Echinochloa crus-galli (Efficacy in %) (Echinochloa crus-galli [16]): 100%; Lolium rigidum (Efficacy in %) (Lolium rigidum): 100%; Polygonum convolvulus (Efficacy in %) (Polygonum convolvulus [17]): 100%; Pharbitis purpurea (Efficacy in %) (Pharbitis purpurea [18]): 100%; Amaranthus retroflexus (Efficacy in %) (Amaranthus retroflexus [19]): 100%; Alopecurus myosuroides (Efficacy in %) (Alopecurus myosuroides [20]): 90%
20	20		20	CCCCC(Sc1cc(-n2c(=O)cc(C(F)(F)F)n(C)c2=O)c(F)cc1Cl)C(=O)OCCC(=O)OCc1ccccc1 (centres unmarked) [I.47-6]	80	80		100	100	100		100	100	100	100	Triticum aestivum (Efficacy in %) (Triticum aestivum; application rate 5 g/ha): 20%
